Measurements from patent publication US9155776B2, “Low frequency glatiramer acetate therapy” (Yeda Research & Development Co., Ltd., priority 2009, dated 2015).
Like-named read-outs stand apart in the source and are kept apart here.

Assays:
[1] = tested on: patients who have experienced a clinically isolated syndrome (CIS); details: 20 mg daily s.c. injection; PCT/US2008/013146; cited from earlier work
[2] = tested on: subjects with Relapsing-Remitting Multiple Sclerosis (RRMS)
Procedure: The study is designed to select three days a week for injection. Three injections are administered for every seven days and there must be at least one day between each injection.
Eligible subjects are randomized in a 2:1 ratio (40 mg:placebo) and assigned to one of the following three treatment arms: • 1. […] Matching placebo three times weekly (450 subjects)
During the PC phase, subjects are evaluated at study sites for a total of 7 scheduled visits at months: −1 (screening), 0 (baseline), 1, 3, 6, 9, and 12 (End of PC phase).
During the study, the following assessments are performed (regardless of the treatment assignment) at the specified time points: • Vital signs are measured at each study visit. • A physical examination is performed at months −1 (screening), 0 (baseline) 6, 12 (end of PC phase) and every 6 months thereafter. In addition, a physical examination will be performed at the termination visit of the OL phase. • The following safety clinical laboratory tests are performed: • Complete blood count (CBC) with differential—at all scheduled visits in the PC phase, and every 12 months thereafter. In addition this test will be performed at the termination visit of the OL phase. • Serum chemistry (including electrolytes, creatinine, urea and liver enzymes) and urinalysis—at all scheduled visits in the PC phase, and every 12 months thereafter. In addition this test will be performed at the termination visit of the OL phase. • Serum β-hCG in women of child-bearing potential is performed at months −1 (screening), 0 (baseline), 12 (end of PC phase), and every 12 months thereafter. In addition this test will be performed at the termination visit of the OL phase. • ECG is performed at months −1 (screening), 0 (baseline), 12 (end of PC phase), and every 12 months thereafter. In addition an ECG will be performed at the termination visit of the OL phase. • Chest X-ray is performed at month −1 (screening) if not performed within 6 months prior to screening visit. • Adverse Events (AEs) are monitored throughout the study. • Concomitant Medications are monitored throughout the study. • Neurological evaluations, including Neurostatus [Functional Systems (FS), Expanded Disability Status Scale (EDSS), Ambulation Index (AI)] are performed at months −1 (screening), 0 (baseline), 3, 6, 9, 12 (end of PC phase) and every 6 months thereafter. In addition, a neurological examination are performed at the termination visit of the OL phase. • The general health status is assessed by the EuroQoL (EQ5D) questionnaire at months 0 (baseline) and 12 (end of PC phase). • Additional quality of life parameters are assessed by the WPAI (Work Productivity and Activities Impairment) Questionnaire at month 0 (baseline), 3, 6, 9 and 12 (end of PC phase). • All subjects undergo MRI scans at months 0 (13-7 days prior to baseline visit), 6 and 12 (end of PC phase). Following the results of the PC phase, the Sponsor may decide to perform an MRI scan at the termination visit of the OL phase. • Relapses are confirmed/monitored throughout the study.
Route and Dosage Form: • Glatiramer Acetate 40 mg in 1 ml for subcutaneous injection in a pre-filled syringe (PFS), administered three times a week. • Matching placebo injection (mannitol in 1 ml WFI) for subcutaneous injection in a pre-filled syringe (PFS). Outcome Measures: Primary Outcome Measure: • The total number of confirmed relapses during the 12 month PC phase.

[3] = tested on: patients who have experienced a clinically isolated syndrome (CIS); details: three s.c. injections over a period of seven days with at least one day between every injection
MS patients = details: 20 mg/day subcutaneous (s.c.) dose; cited from earlier work
MS = details: controlled clinical trials; cited from earlier work
[4] = 40 mg s.c. three times weekly compared with 20 mg s.c. GA daily administration
[5] = 40 mg s.c. three times weekly vs placebo

For “L-glutamic acid polymer with L-alanine, L-lysine, L-tyrosine, acetate (salt) [GA]”, the “efficacy in treatment of patients who have experienced a clinically isolated syndrome (CIS)” value [1] is given as “has been shown to work”, the “reduction of subject population annualized relapse rate” value ([2]; 40 mg s.c. three times weekly compared to the placebo group, RRMS subjects) is given as no less than 30% and the “increasing the proportion of relapse-free subjects during the placebo-controlled phase” value [2, 4] is given as “at least as effective as 20 mg s.c. GA daily administration”. The “increasing the time to the first confirmed relapse during the placebo-controlled phase” value [2, 4] was “at least as effective as 20 mg s.c. GA daily administration”, the “reducing the change from baseline to month 12 (end of placebo-controlled phase) in EDSS Score” value [2, 4] was “at least as effective as 20 mg s.c. GA daily administration” and the “reducing the cumulative number of enhancing lesions on T1-weighted images taken at months 6 and 12” value [2, 4] was “at least as effective as 20 mg s.c. GA daily administration”. The “reducing the level of disability as measured by EDSS Score” value [2, 4] was “at least as effective as 20 mg s.c. GA daily administration”, the “reducing the level of disability as measured by EuroQoL (EQ5D) questionnaire” value [2, 4] was “at least as effective as 20 mg s.c. GA daily administration” and the “reducing the level of disability as measured by the work productivity and activities impairment-General Health (WPAI-GH) questionnaire” value [2, 4] was “at least as effective as 20 mg s.c. GA daily administration”. The “reducing the number of new T2 lesions at month 12” value [2, 4] was “at least as effective as 20 mg s.c. GA daily administration”, the “reducing the number of new hypointense lesions on enhanced T1 scans at month 12 as compared to the baseline scan” value [2, 4] was “at least as effective as 20 mg s.c. GA daily administration” and the “reducing the progression of MRI-monitored disease activity in the patient” value [2, 4] was “at least as effective as 20 mg s.c. GA daily administration”. For the same molecule, the “reducing the subject population annualized relapse rate” value [2, 4] was “at least as effective as 20 mg s.c. GA daily administration”, the “reducing the total number of confirmed relapses during the placebo-controlled phase requiring hospitalization and/or IV steroids” value [2, 4] was “at least as effective as 20 mg s.c. GA daily administration” and the “reducing proportion (%) of subjects with confirmed EDSS progression during the placebo-controlled phase” value ([2]; 40 mg s.c. three times weekly compared with 20 mg s.c. GA daily administration, progression of at least 1 EDSS point sustained for at least 3 months) was “at least as effective as 20 mg s.c. GA daily administration”. The “change from baseline to month (end of placebo-controlled phase) in EDSS Score” value [2, 5] was “significantly reduces”, the “cumulative number of enhancing lesions on T1-weighted images taken at months 6 and 12” value [2, 5] was “significantly reduces” and the “level of disability as measured by EDSS Score” value [2, 5] was “significantly reduces”. For the same molecule, the “level of disability as measured by EuroQoL (EQ5D) questionnaire” value [2, 5] was “significantly reduces”, the “level of disability as measured by the work productivity and activities impairment-General Health (WPAI-GH) questionnaire” value [2, 5] was “significantly reduces” and the “number of new T2 lesions at month 12” value [2, 5] was “significantly reduces”. The “number of new hypointense lesions on enhanced T1 scans at month 12 as compared to the baseline scan” value [2, 5] was “significantly reduces”, the “progression of MRI-monitored disease activity in the patient” value [2, 5] was “significantly reduces” and the “proportion of relapse-free subjects during the placebo-controlled phase” value [2, 5] was “significantly increases”. For the same molecule, the “time to the first confirmed relapse during the placebo-controlled phase” value [2, 5] was “significantly increases”, the “total number of confirmed relapses during the placebo-controlled phase requiring hospitalization and/or IV steroids” value [2, 5] was “significantly reduces” and the “proportion (%) of subjects with confirmed EDSS progression during the placebo-controlled phase” value ([2]; 40 mg s.c. three times weekly vs placebo, progression of at least 1 EDSS point sustained for at least 3 months) was “significantly reduces”. The “efficacy in treatment of patients who have experienced a clinically isolated syndrome (CIS)” value [3] was “expected to work” and the “total number of enhancing lesions in MS patients as measured by MRI” value (MS patients) was “has been shown to reduce”.

B1: IFNβ-1b: immunomodulator (IFNβ 1b) whose efficacy in MS was shown in controlled clinical trials (protein, UniProt P01574 22-187, looked up, variant C17S)
Interferon beta: MSYNLLGFLQRSSNFQSQKLLWQLNGRLEYCLKDRMNFDIPEEIKQLQQFQKEDAALTIYEMLQNIFAIFRQDSSSTGWNETIVENLLANVYHQINHLKTVLEEKLEKEDFTRGKLMSSLHLKRYYGRILHYLKAKEYSHCAWTIVRVEILRNFYFINRLTGYLRN
For B1, the “efficacy in the treatment of MS” value (MS) is listed as “demonstrated the efficacy”.
